Measurements: ChEMBL document CHEMBL1201862, “PubChem BioAssay data set” (2004)
Values joined by “and” are separate entries in the source; they are usually repeats but may differ in a detail not shown here. Equal entries are not always repeated.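 48-hour exposure; five concentrations; linearly interpolated endpoints. Here, GI50 denotes the concentration required for 50% inhibition of growth.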 Active and inactive are the calls of the source. No stated cut-off is given here; in the data, active = GI50 up to about 1.1 µM and inactive = higher.

Columns and labels:
Test in all cases: DTP human tumour cell line panel, 48 h
HOP-18 = system: HOP-18
DLD-1 = system: DLD-1
LXFL 529 = system: LXFL 529
KM-20L2 = system: KM-20L2
M19-MEL = system: M19-MEL
BT-549 = system: BT-549
MDA-N = system: MDA-N
XF498 = system: XF498

SMILES	GI50 (BT-549)	GI50 (MDA-N)	further results
O=C(O)c1cc2c3ccccc3nc-2c[nH]1			GI50 (HOP-18): > 100 µM (inactive); GI50 (DLD-1): > 100 µM (inactive); GI50 (LXFL 529): > 100 µM (inactive); GI50 (KM-20L2): > 100 µM (inactive); GI50 (M19-MEL): > 100 µM (inactive)
Cc1cc(-c2cc(C)c(O)c(C(C)(C)C)c2)cc(C(C)(C)C)c1O	14.1 µM (inactive) and 13.1 µM (inactive)	14.7 µM (inactive) and 8.65 µM (inactive)	
COc1c(C(CC(C)C)OC(C)=O)ccc2c1C(=O)OCc1cc(C)cc(O)c1O2 (stereo not drawn)	16.2 µM (inactive)	15.1 µM (inactive)	
Oc1nc2ccccc2c(O)c1Cc1ccccc1	> 100 µM (inactive)	> 100 µM (inactive)	
CC1(CCC(=O)OC2CCCCC2)OCCO1		> 100 µM (inactive)	
N#Cc1c(-c2ccc(Cl)cc2)c(-c2ccc(Cl)cc2)nn(CCOC(=O)CCC(=O)O)c1=O	11.9 µM (inactive)	0.08 µM (active)	GI50 (HOP-18): 29.2 µM (inactive); GI50 (DLD-1): 4.13 µM (inactive); GI50 (LXFL 529): 1.03 µM (active); GI50 (KM-20L2): 2.28 µM (inactive); GI50 (M19-MEL): 1.8 µM (inactive)
Cc1ccc(-n2nnc(C#N)c2O)cc1	> 100 µM (inactive)	> 100 µM (inactive)	
Oc1ccc(C[C@@H]2CN[C@H](Cc3ccc(O)c(Br)c3)CN2)cc1	> 100 µM (inactive)		
[N-]=[N+]=NC1=C(c2ccccn2)C(=O)c2cccc3cccc1c23	27.3 µM (inactive)	53.8 µM (inactive)	
Nc1ncc(Br)c(NCC2(CO)CCC2)n1	> 100 µM (inactive)	> 100 µM (inactive)	
CC(C)COC(=O)OC(=O)c1ccc(N(C)Cc2cnc3nc(N)nc(N)c3n2)cc1	20.9 µM (inactive)	7.96 µM (inactive)	
O=C1OC(=O)C2C1C1C(c3ccccc3)=C(c3ccccc3)C2(O)C2C(=O)OC(=O)C12 (stereo not drawn)			GI50 (DLD-1): 91 µM (inactive); GI50 (LXFL 529): 58.3 µM (inactive); GI50 (KM-20L2): 91 µM (inactive); GI50 (M19-MEL): > 100 µM (inactive)
C[C@H](CO)C1=CC(C#C[Si](C)(C)C)N(C(=O)Oc2ccccc2)c2ccccc21 (stereo partly drawn)		3.58 µM (inactive)	
COC(=O)C1CC(C=O)=C(SC)N1 (stereo not drawn)	> 50 µM (inactive)	> 50 µM (inactive)	
CC(C)(C)/C(O)=C\c1nc2cc(C(F)(F)F)ccc2[nH]c1=O	> 100 µM (inactive)	> 100 µM (inactive)	
CN1C(=O)C(C(N)=O)C2CC1(C)Oc1ccccc12 (stereo not drawn)	> 100 µM (inactive)		
CCOC(=O)/C(=C\c1ccc(N(C)C)cc1)S(=O)(=O)C(F)(F)C(F)(F)C(F)(F)C(F)(F)F	52.6 µM (inactive)	> 100 µM (inactive)	
Cc1nc2nn(C)cc2c(=O)n1/N=C/c1ccccc1			GI50 (HOP-18): 73.1 µM (inactive); GI50 (DLD-1): > 100 µM (inactive); GI50 (KM-20L2): > 100 µM (inactive); GI50 (XF498): > 100 µM (inactive); GI50 (M19-MEL): > 100 µM (inactive)

SMILES	GI50 (BT-549)	GI50 (MDA-N)	further results
O=C1C[C@@H]2[C@@H](CCC23CCCC3)N1			GI50 (HOP-18): > 100 µM (inactive); GI50 (DLD-1): > 100 µM (inactive); GI50 (LXFL 529): > 100 µM (inactive); GI50 (KM-20L2): > 100 µM (inactive); GI50 (M19-MEL): > 100 µM (inactive)
O=C(OCc1ccccc1)N1c2cc([N+](=O)[O-])ccc2C(=O)N2CCC[C@H]2C1O (stereo partly drawn)	> 100 µM (inactive)	> 100 µM (inactive)	
CCc1nn(S(=O)(=O)c2ccc(C)cc2)c2c1CS(=O)(=O)CC2	> 100 µM (inactive)	> 100 µM (inactive)	
Nc1nc2c(ncn2CC2CCC(CO)C2)c(=O)[nH]1 (stereo not drawn)		> 100 µM (inactive)	
O=C(NCc1ccccc1)c1cc2ccccc2o/c1=N\c1cccc(C(F)(F)F)c1	> 100 µM (inactive)	54.8 µM (inactive)	
CSc1nc(NC(C)C)c2c(n1)Sc1nc3ccccc3n1N=C2	18.7 µM (inactive)	27 µM (inactive)	
S=C1SCN(Cc2ccco2)CN1c1ccc(Br)cc1	16.7 µM (inactive)	16.9 µM (inactive)	
CC(C)=c1sc(=C(C)C)c2c1=NC(C)(C)N=2	67.3 µM (inactive)	65.6 µM (inactive)	
CSC(SC)=C(C#N)C(=O)Nc1ccc(C)cc1	> 100 µM (inactive)	> 100 µM (inactive)	
Oc1ccc(Br)cc1/C=N/c1c(NC2CCCCC2)oc2ccc(Br)cc12	25.5 µM (inactive)	32.6 µM (inactive)	
COc1cc(NS(C)(=O)=O)ccc1N1Cc2c[nH]c3ccc4nccc1c4c23	42.9 µM (inactive)	28.7 µM (inactive)	
Cc1nc2c(sc3nc4c(cc32)CCC4)c(=O)o1		38.7 µM (inactive)	
CC(=O)/C(=C\n1c(=S)[nH]c2ccc([N+](=O)[O-])cc21)C(=O)Nc1ccccc1C	33.3 µM (inactive)	> 100 µM (inactive)	
COC(=O)C1=C(O)C(C(=O)OC)[C@]2(O)[C@H](C(=O)OC)[C@H]1C[C@@H](c1ccccc1OC)[C@H]2C(=O)OC (stereo partly drawn)	3.15 µM (inactive)	1.98 µM (inactive)	
O=C1C=CC(=O)c2c1ccc1c3ccccc3n(-c3ccccn3)c21			GI50 (HOP-18): 14.8 µM (inactive); GI50 (DLD-1): 16.5 µM (inactive); GI50 (LXFL 529): 14.8 µM (inactive); GI50 (XF498): 15.6 µM (inactive); GI50 (M19-MEL): 21 µM (inactive)
CC(CN(C)C)C(C#N)(c1ccccc1)c1ccccc1 (stereo not drawn)	> 100 µM (inactive)	> 100 µM (inactive)	
NC(=S)Nc1ccc2c(c1)oc1ccccc12	> 100 µM (inactive)	> 100 µM (inactive)	
